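48-hour exposure; five concentrations; linearly interpolated endpoints. TGI is the concentration that stops growth completely.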
Assays:
Experiment in all cases: growth of human tumour cells (NCI), 48 h
[1] = system: 786-0 renal
[2] = system: A498 renal
[3] = system: A549 NSCLC
[4] = system: ACHN renal
[5] = system: BT-549 breast
[6] = system: CAKI-1 renal
[7] = system: CCRF-CEM leukemia
[8] = system: COLO 205 colon
[9] = system: DU-145 prostate
[10] = system: EKVX NSCLC
[11] = system: HCC-2998 colon
[12] = system: HCT-116 colon
[13] = system: HCT-15 colon
[14] = system: HL-60(TB) leukemia
[15] = system: HOP-62 NSCLC
[16] = system: HS 578T breast
[17] = system: IGROV1 ovarian
[18] = system: K-562 leukemia
[19] = system: KM12 colon
[20] = system: LOX IMVI melanoma
[21] = system: M14 melanoma
[22] = system: MALME-3M melanoma
[23] = system: MCF7 breast
[24] = system: MDA-MB-231 breast
[25] = system: MDA-MB-435
[26] = system: MDA-N
[27] = system: MOLT-4 leukemia
[28] = system: NCI-H226 lung
[29] = system: NCI-H460 lung
[30] = system: NCI-H522 lung
[31] = system: NCI/ADR-RES ovarian
[32] = system: OVCAR-3 ovarian
[33] = system: OVCAR-4 ovarian
[34] = system: OVCAR-5 ovarian
[35] = system: OVCAR-8 ovarian
[36] = system: PC-3 prostate
[37] = system: RPMI-8226 leukemia
[38] = system: RXF 393 renal
[39] = system: SF-268 CNS
[40] = system: SF-295 CNS
[41] = system: SF-539 CNS
[42] = system: SK-MEL-2 melanoma
[43] = system: SK-MEL-28 melanoma
[44] = system: SK-MEL-5 melanoma
[45] = system: SK-OV-3 ovarian
[46] = system: SN12C renal
[47] = system: SNB-19 CNS
[48] = system: SNB-75 CNS
[49] = system: SW-620 colon
[50] = system: T-47D breast
[51] = system: TK-10 renal
[52] = system: U251 CNS
[53] = system: UACC-257 melanoma
[54] = system: UACC-62 melanoma
[55] = system: UO-31 renal
[56] = system: HOP-92 NSCLC
[57] = system: HT29 colon
[58] = system: NCI-H23 lung
[59] = system: SR leukemia

[N-]=[N+]=NC1OC(=O)C(Cl)=C1N=P(c1ccccc1)(c1ccccc1)c1ccccc1 (stereo not given)
TGI [1]: > 10 µM | TGI [2]: > 10 µM | TGI [3]: > 10 µM | TGI [4]: > 10 µM | TGI [5]: > 10 µM | TGI [6]: > 10 µM | TGI [7]: > 10 µM | TGI [8]: > 10 µM | TGI [9]: > 10 µM | TGI [10]: > 10 µM | TGI [11]: > 10 µM | TGI [12]: > 10 µM | TGI [13]: > 10 µM | TGI [14]: > 10 µM | TGI [15]: > 10 µM | TGI [16]: > 10 µM | TGI [17]: > 10 µM | TGI [18]: > 10 µM | TGI [19]: > 10 µM | TGI [20]: > 10 µM | TGI [21]: > 10 µM | TGI [22]: > 10 µM | TGI [23]: > 10 µM | TGI [24]: > 10 µM | TGI [25]: > 10 µM | TGI [26]: > 10 µM | TGI [27]: 8.72 µM | TGI [28]: > 10 µM | TGI [29]: > 10 µM | TGI [30]: > 10 µM | TGI [31]: > 10 µM | TGI [32]: > 10 µM | TGI [33]: > 10 µM | TGI [34]: > 10 µM | TGI [35]: > 10 µM | TGI [36]: > 10 µM | TGI [37]: 8.33 µM | TGI [38]: > 10 µM | TGI [39]: > 10 µM | TGI [40]: > 10 µM | TGI [41]: > 10 µM | TGI [42]: > 10 µM | TGI [43]: > 10 µM | TGI [44]: > 10 µM | TGI [45]: > 10 µM | TGI [46]: > 10 µM | TGI [47]: > 10 µM | TGI [48]: > 10 µM | TGI [49]: > 10 µM | TGI [50]: > 10 µM | TGI [51]: > 10 µM | TGI [52]: > 10 µM | TGI [53]: > 10 µM | TGI [54]: > 10 µM | TGI [55]: > 10 µM

CCOC(=O)c1cc2cc3c4c(c2oc1=O)CCCN4CCC3
TGI [1]: > 100 µM | TGI [2]: 79 µM | TGI [3]: > 100 µM | TGI [4]: > 100 µM | TGI [5]: > 100 µM | TGI [6]: > 100 µM | TGI [7]: > 100 µM | TGI [8]: 57.1 µM | TGI [9]: > 100 µM | TGI [10]: 80 µM | TGI [11]: > 100 µM | TGI [12]: 79 µM | TGI [13]: > 100 µM | TGI [14]: 45.8 µM | TGI [15]: > 100 µM | TGI [56]: 58 µM | TGI [16]: 89.2 µM | TGI [57]: > 100 µM | TGI [17]: > 100 µM | TGI [18]: > 100 µM | TGI [19]: 61.9 µM | TGI [20]: 62.7 µM | TGI [21]: > 100 µM | TGI [22]: > 100 µM | TGI [23]: 56.3 µM | TGI [24]: 69.2 µM | TGI [25]: 83.5 µM | TGI [26]: > 100 µM | TGI [27]: 62.9 µM | TGI [28]: 51.3 µM | TGI [58]: > 100 µM | TGI [29]: > 100 µM | TGI [30]: 45.6 µM | TGI [31]: 72.9 µM | TGI [32]: 93.9 µM | TGI [33]: > 100 µM | TGI [34]: > 100 µM | TGI [35]: 72.9 µM | TGI [36]: 97.5 µM | TGI [37]: 49.3 µM | TGI [38]: 39.4 µM | TGI [39]: 71.3 µM | TGI [40]: > 100 µM | TGI [41]: 58.2 µM | TGI [42]: > 100 µM | TGI [43]: > 100 µM | TGI [44]: 26.8 µM | TGI [46]: > 100 µM | TGI [47]: > 100 µM | TGI [59]: > 100 µM | TGI [49]: > 100 µM | TGI [50]: 53.6 µM | TGI [51]: > 100 µM | TGI [52]: > 100 µM | TGI [53]: > 100 µM | TGI [55]: > 100 µM

CCCC(CCC(N)=O)(CCC(N)=O)[N+](=O)[O-]
TGI [1]: > 100 µM | TGI [3]: > 100 µM | TGI [4]: > 100 µM | TGI [5]: > 100 µM | TGI [6]: > 100 µM | TGI [7]: > 100 µM | TGI [8]: > 100 µM | TGI [9]: > 100 µM | TGI [10]: > 100 µM | TGI [12]: > 100 µM | TGI [13]: > 100 µM | TGI [14]: > 100 µM | TGI [56]: > 100 µM | TGI [16]: > 100 µM | TGI [57]: > 100 µM | TGI [17]: > 100 µM | TGI [18]: > 100 µM | TGI [19]: > 100 µM | TGI [21]: > 100 µM | TGI [22]: > 100 µM | TGI [23]: > 100 µM | TGI [24]: > 100 µM | TGI [25]: > 100 µM | TGI [26]: > 100 µM | TGI [27]: > 100 µM | TGI [28]: > 100 µM | TGI [58]: > 100 µM | TGI [29]: > 100 µM | TGI [30]: > 100 µM | TGI [31]: > 100 µM | TGI [34]: > 100 µM | TGI [35]: > 100 µM | TGI [36]: > 100 µM | TGI [37]: > 100 µM | TGI [38]: > 100 µM | TGI [39]: > 100 µM | TGI [40]: > 100 µM | TGI [41]: > 100 µM | TGI [42]: > 100 µM | TGI [44]: > 100 µM | TGI [45]: > 100 µM | TGI [46]: > 100 µM | TGI [47]: > 100 µM | TGI [48]: > 100 µM | TGI [59]: > 100 µM | TGI [49]: > 100 µM | TGI [50]: > 100 µM | TGI [51]: > 100 µM | TGI [52]: > 100 µM | TGI [53]: > 100 µM | TGI [54]: > 100 µM | TGI [55]: > 100 µM

Cc1cc2/c(=C\c3ccc(N(C)C)cc3)c3ccccc3n2[n+]1C
TGI [1]: 8.77 µM | TGI [2]: 9.33 µM | TGI [4]: 10 µM | TGI [5]: 5.99 µM | TGI [6]: 22.3 µM | TGI [7]: > 100 µM | TGI [8]: 0.354 µM | TGI [9]: 4.16 µM | TGI [10]: 8.79 µM | TGI [11]: 1 µM | TGI [12]: 2.55 µM | TGI [13]: 34.7 µM | TGI [14]: 6.44 µM | TGI [15]: 8.45 µM | TGI [56]: 3.52 µM | TGI [16]: 8.95 µM | TGI [57]: 9.03 µM | TGI [17]: 6.76 µM | TGI [18]: 21.4 µM | TGI [19]: 5.54 µM | TGI [20]: 2.59 µM | TGI [21]: 3.73 µM | TGI [22]: 2.98 µM | TGI [23]: 6.55 µM | TGI [24]: 3.66 µM | TGI [25]: 1.84 µM | TGI [26]: 1.58 µM | TGI [27]: 1.32 µM | TGI [28]: 5.87 µM | TGI [58]: 3.23 µM | TGI [29]: 2.02 µM | TGI [30]: 1.99 µM | TGI [31]: > 100 µM | TGI [32]: 2.63 µM | TGI [33]: 10.3 µM | TGI [34]: 21.3 µM | TGI [35]: 1.78 µM | TGI [36]: 2.38 µM | TGI [37]: 0.738 µM | TGI [38]: 10.4 µM | TGI [39]: 6.57 µM | TGI [40]: 12.8 µM | TGI [41]: 5.61 µM | TGI [42]: 2.08 µM | TGI [43]: 3.19 µM | TGI [44]: 1.58 µM | TGI [45]: 14.3 µM | TGI [46]: 1.65 µM | TGI [47]: 4.52 µM | TGI [48]: 2.26 µM | TGI [49]: > 32 µM | TGI [50]: 3.76 µM | TGI [51]: 6.04 µM | TGI [52]: 1.78 µM | TGI [53]: 1.07 µM | TGI [54]: 2.95 µM | TGI [55]: 15.3 µM
